From the supplement of paper PMC11451515 come the findings set out here.

Common to all, as to assay: AUC of viability dose-response curve (% viability x log10 dose units); higher = less sensitive
Conditions in all cases: 48 h

One test has as its system P12-Ichikawa. In short, it runs like this: (§1)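 Leukemia cells adapted to each medium (500 or 1000 cells/well, 1536-well plates) were exposed to library compounds in DMSO for 48 h at 37°C at 11 threefold doses, 47 μM to 0.79 nM. Luminescence by CellTiter-Glo One was normalised per plate to DMSO and cell-free wells, then fitted with a four-parameter log-logistic curve on log10 dose. Curves above full viability were scaled and quality-control failures removed before area under the curve was integrated by trapezoidal rule.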

The test system of the next test is NOMO1. In short, it runs like this: as §1
The next test relates to SEM cells. In short, it runs like this: as §1
Where [1] appears, read: RPMI 5 mM glucose + 10% dialyzed FBS.

With `NC(=O)c1cnc(-c2ccc(C3(N)CCC3)cc2)c(-c2ccccc2)c1`, the “AUC of viability dose-response curve” value in the test on P12-Ichikawa (HPLM + 10% dialyzed FBS) was 428; in the test on P12-Ichikawa (RPMI 5 mM glucose + 10% FBS), 448; in the test on P12-Ichikawa (setting [1]), 432; in the test with NOMO1 (HPLM + 10% dialyzed FBS), 428; in the test on NOMO1 (RPMI 5 mM glucose + 10% FBS), 468; with NOMO1 (setting [1]) it was 460. Moreover, the “AUC of viability dose-response curve” value was 400 in the test with SEM cells (HPLM + 10% dialyzed FBS), 396 in the test with SEM cells (RPMI 5 mM glucose + 10% FBS) and 394 in the test on SEM cells (setting [1]).

Regarding `COc1cccc2c(NCc3ccccc3)nc(-n3c(N)nc4ccccc43)nc12`, the “AUC of viability dose-response curve” value in the test on P12-Ichikawa (HPLM + 10% dialyzed FBS) is 428; in the test on P12-Ichikawa (RPMI 5 mM glucose + 10% FBS) it was 435; with P12-Ichikawa (setting [1]), 439; with NOMO1 (HPLM + 10% dialyzed FBS), 453; in the test with NOMO1 (RPMI 5 mM glucose + 10% FBS), 457; in the test with NOMO1 (setting [1]) it was 455. In addition, the “AUC of viability dose-response curve” value with SEM cells (HPLM + 10% dialyzed FBS) came to 369; with SEM cells (RPMI 5 mM glucose + 10% FBS) it was 367; with SEM cells (setting [1]), 379.

For the molecule `C=C[C@H]1CN2CCC1C[C@@H]2[C@@H](O)c1ccnc2ccccc12` (stereo partly specified), the “AUC of viability dose-response curve” value with P12-Ichikawa (HPLM + 10% dialyzed FBS) came to 443; in the test on P12-Ichikawa (RPMI 5 mM glucose + 10% FBS), 436; with P12-Ichikawa (setting [1]) it was 429; in the test on NOMO1 (HPLM + 10% dialyzed FBS), 453; in the test on NOMO1 (RPMI 5 mM glucose + 10% FBS) it was 422; with NOMO1 (setting [1]) it was 420. Also, the “AUC of viability dose-response curve” value in the test with SEM cells (HPLM + 10% dialyzed FBS) was found to be 448; in the test with SEM cells (RPMI 5 mM glucose + 10% FBS) it was 435; in the test with SEM cells (setting [1]), 451.

On to `CC1=CC=C2\N=C/3N(CC[C@@]3(O)C(=O)C2=C1)C4=CC=CC=C4`, for which the “AUC of viability dose-response curve” value in the test on P12-Ichikawa (HPLM + 10% dialyzed FBS) is 442; in the test on P12-Ichikawa (RPMI 5 mM glucose + 10% FBS), 420; in the test with P12-Ichikawa (setting [1]), 400; in the test with NOMO1 (HPLM + 10% dialyzed FBS) it was 452; in the test on NOMO1 (RPMI 5 mM glucose + 10% FBS), 403; in the test with NOMO1 (setting [1]) it was 425. Moreover, the “AUC of viability dose-response curve” value came out at 431 in the test on SEM cells (HPLM + 10% dialyzed FBS), 438 with SEM cells (RPMI 5 mM glucose + 10% FBS) and 413 with SEM cells (setting [1]).

In the case of `CC(Cc1ccc(O)c(O)c1)(NN)C(=O)O` (stereo unspecified), the “AUC of viability dose-response curve” value was 448 with P12-Ichikawa (HPLM + 10% dialyzed FBS); 467 in the test on P12-Ichikawa (RPMI 5 mM glucose + 10% FBS); 465 in the test with P12-Ichikawa (setting [1]); 475 in the test with NOMO1 (HPLM + 10% dialyzed FBS); 453 in the test with NOMO1 (RPMI 5 mM glucose + 10% FBS); 442 in the test on NOMO1 (setting [1]). The “AUC of viability dose-response curve” value in the test with SEM cells (HPLM + 10% dialyzed FBS) was found to be 469; in the test with SEM cells (RPMI 5 mM glucose + 10% FBS) it was 466; in the test on SEM cells (setting [1]) it was 468.

Consider `OC1=CC2=C(C(=O)\C=C(/O2)C3=CC=CC=C3)C(=C1O)O`, for which the “AUC of viability dose-response curve” value in the test on P12-Ichikawa (HPLM + 10% dialyzed FBS) worked out at 391; with P12-Ichikawa (RPMI 5 mM glucose + 10% FBS), 413; in the test on P12-Ichikawa (setting [1]), 418; in the test with NOMO1 (HPLM + 10% dialyzed FBS), 441; in the test with NOMO1 (RPMI 5 mM glucose + 10% FBS) it was 431; in the test on NOMO1 (setting [1]), 441. Moreover, the “AUC of viability dose-response curve” value in the test with SEM cells (HPLM + 10% dialyzed FBS) is 407; in the test with SEM cells (RPMI 5 mM glucose + 10% FBS), 379; in the test on SEM cells (setting [1]), 402.

As for `Cc1cc(-c2nnc3n2CCCCC3)c(C)n1-c1ccccc1`, the “AUC of viability dose-response curve” value was determined as 464 in the test with P12-Ichikawa (HPLM + 10% dialyzed FBS); 462 in the test on P12-Ichikawa (RPMI 5 mM glucose + 10% FBS); 470 in the test on P12-Ichikawa (setting [1]); 464 with NOMO1 (HPLM + 10% dialyzed FBS); 473 in the test on NOMO1 (RPMI 5 mM glucose + 10% FBS); 470 in the test on NOMO1 (setting [1]). The “AUC of viability dose-response curve” value with SEM cells (HPLM + 10% dialyzed FBS) came out at 470; in the test on SEM cells (RPMI 5 mM glucose + 10% FBS) it was 424; in the test with SEM cells (setting [1]), 472.

Consider `CCc1cccc2c3c([nH]c12)C(CC)(CC(=O)O)OCC3` (stereo unspecified), for which the “AUC of viability dose-response curve” value in the test on P12-Ichikawa (HPLM + 10% dialyzed FBS) was determined as 466; in the test with P12-Ichikawa (RPMI 5 mM glucose + 10% FBS), 448; in the test on P12-Ichikawa (setting [1]) it was 465; in the test with NOMO1 (HPLM + 10% dialyzed FBS), 452; in the test on NOMO1 (RPMI 5 mM glucose + 10% FBS), 441; with NOMO1 (setting [1]), 427. The “AUC of viability dose-response curve” value in the test with SEM cells (HPLM + 10% dialyzed FBS) came to 454; in the test on SEM cells (RPMI 5 mM glucose + 10% FBS) it was 409; in the test on SEM cells (setting [1]), 448.

For the molecule `CC[C@H](NC(C)C)[C@H](O)c1ccc(O)c2[nH]c(=O)ccc12`, the “AUC of viability dose-response curve” value was 451 in the test with P12-Ichikawa (HPLM + 10% dialyzed FBS); 462 in the test with P12-Ichikawa (RPMI 5 mM glucose + 10% FBS); 456 in the test on P12-Ichikawa (setting [1]); 470 with NOMO1 (HPLM + 10% dialyzed FBS); 447 with NOMO1 (RPMI 5 mM glucose + 10% FBS); 463 with NOMO1 (setting [1]). The “AUC of viability dose-response curve” value with SEM cells (HPLM + 10% dialyzed FBS) came out at 442; in the test with SEM cells (RPMI 5 mM glucose + 10% FBS), 472; in the test on SEM cells (setting [1]) it was 474.

`CCC[C@@H](C=O)NC(=O)[C@H](CC(C)C)NC(=O)[C@H](CC(C)C)NC(=O)OCc1ccccc1`: the “AUC of viability dose-response curve” value with P12-Ichikawa (HPLM + 10% dialyzed FBS) was determined as 366; with P12-Ichikawa (RPMI 5 mM glucose + 10% FBS) it was 359; in the test on P12-Ichikawa (setting [1]), 367; in the test on NOMO1 (HPLM + 10% dialyzed FBS) it was 348; with NOMO1 (RPMI 5 mM glucose + 10% FBS), 334; in the test on NOMO1 (setting [1]), 359. The “AUC of viability dose-response curve” value is 356 in the test with SEM cells (HPLM + 10% dialyzed FBS), 296 with SEM cells (RPMI 5 mM glucose + 10% FBS) and 337 in the test on SEM cells (setting [1]).

With `CC(C)C(=O)Nc1ncc(-c2cc(C(F)F)nn2-c2c(Cl)cccc2Cl)s1`, the “AUC of viability dose-response curve” value in the test on P12-Ichikawa (HPLM + 10% dialyzed FBS) turned out to be 465; with P12-Ichikawa (RPMI 5 mM glucose + 10% FBS), 460; with P12-Ichikawa (setting [1]) it was 463; in the test on NOMO1 (HPLM + 10% dialyzed FBS), 468; in the test with NOMO1 (RPMI 5 mM glucose + 10% FBS), 472; in the test on NOMO1 (setting [1]), 460. The “AUC of viability dose-response curve” value in the test with SEM cells (HPLM + 10% dialyzed FBS) is 458; in the test with SEM cells (RPMI 5 mM glucose + 10% FBS), 465; in the test on SEM cells (setting [1]), 463.

With `COc1ccc(CC2c3cc(OC)c(OC)cc3CC[N+]2(C)CCC(=O)OCCCCCOC(=O)CC[N+]2(C)CCc3cc(OC)c(OC)cc3C2Cc2ccc(OC)c(OC)c2)cc1OC` (stereo unspecified), the “AUC of viability dose-response curve” value in the test with P12-Ichikawa (HPLM + 10% dialyzed FBS) amounted to 439; in the test with P12-Ichikawa (RPMI 5 mM glucose + 10% FBS), 437; in the test with P12-Ichikawa (setting [1]), 427; in the test on NOMO1 (HPLM + 10% dialyzed FBS) it was 406; with NOMO1 (RPMI 5 mM glucose + 10% FBS), 390; in the test on NOMO1 (setting [1]), 375. In addition, the “AUC of viability dose-response curve” value with SEM cells (HPLM + 10% dialyzed FBS) is 412; in the test with SEM cells (RPMI 5 mM glucose + 10% FBS) it was 394; in the test on SEM cells (setting [1]), 401.

Turning to `NCCCCCC(=O)O`, the “AUC of viability dose-response curve” value in the test on P12-Ichikawa (HPLM + 10% dialyzed FBS) worked out at 463; in the test on P12-Ichikawa (RPMI 5 mM glucose + 10% FBS) it was 469; in the test with P12-Ichikawa (setting [1]), 463; with NOMO1 (HPLM + 10% dialyzed FBS), 469; in the test with NOMO1 (RPMI 5 mM glucose + 10% FBS), 459; in the test on NOMO1 (setting [1]), 447. Moreover, the entries for the “AUC of viability dose-response curve” value in the test on SEM cells (HPLM + 10% dialyzed FBS), in the test with SEM cells (RPMI 5 mM glucose + 10% FBS) and with SEM cells (setting [1]) were 398, 459 and 389, respectively.

Regarding `CCc1c(O)cc(O)c(C(=O)c2ccc(OCCN3CCOCC3)c(OC)c2)c1CC(=O)N(CCOC)CCOC`, the “AUC of viability dose-response curve” value with P12-Ichikawa (HPLM + 10% dialyzed FBS) worked out at 399; with P12-Ichikawa (RPMI 5 mM glucose + 10% FBS), 384; in the test with P12-Ichikawa (setting [1]), 383; with NOMO1 (HPLM + 10% dialyzed FBS), 359; with NOMO1 (RPMI 5 mM glucose + 10% FBS) it was 367; with NOMO1 (setting [1]), 375. The “AUC of viability dose-response curve” value with SEM cells (HPLM + 10% dialyzed FBS) amounted to 383; with SEM cells (RPMI 5 mM glucose + 10% FBS), 347; with SEM cells (setting [1]) it was 355.
